Each structure is given as a SMILES string.

Consider `O=C(O)c1cc2c(cc1[N+](=O)[O-])OCO2`, for which the melting point (as a rule, the temperature, or range, at which the solid turns liquid) is 160 to 163 °C. Turning to `CC(=O)SCC(CC(C)C)C(=O)NCCCCCC(N)=O` (stereo not drawn), the melting point was 64 to 80 °C. In the case of `Cc1ccc(S(=O)(=O)OCC2Cc3cccc(OS(=O)(=O)C(F)(F)F)c3O2)cc1` (stereo not drawn) it was 60 to 63 °C; in that of `Fc1ccc(-c2ncc(Br)cn2)cc1F`, 148 °C; in that of `COC(=O)c1ccccc1CC(=O)Nc1cccc(/C=C/c2nc(C3CCC3)cs2)c1`, 143 to 144 °C. On to `O=c1oc(-c2ccc(-c3nc4ccccc4c(=O)o3)cc2)nc2ccccc12`, for which the melting point was more than 300 °C.

Turning to `CCc1cnc(N2CCC(c3ccc(COc4ccc(C#N)c(F)c4)nc3)CC2)nc1`, the melting point was in the range of 129 to 131 °C. With `CN1CC(CCCl)Cc2ncccc2C1=S` (stereo not drawn) the figure was 110 to 120 °C; with `OCC(O)CNc1nnc(-c2ccc(F)c(F)c2Nc2ccc(I)cc2F)o1` (stereo not drawn), 157 to 159 °C. `Cc1cnc(Br)c(F)c1` displayed a melting point of 32 to 33 °C. With `OCC(Nc1nc(-c2ccc(Br)cc2)cs1)C(F)(F)F` (stereo not drawn) the figure was 133 to 134 °C; with `COc1cc(C(C)=O)ccc1-c1ccc(F)cc1`, 75 to 77 °C; with `NS(=O)(=O)c1ccccc1C1=NOCCO1`, 131 to 133 °C. In the case of `CN(C)CCOc1cc2c(Nc3ccc(F)c(Cl)c3)c(C#N)cnc2cn1` it was 131 to 132 °C. For the compound `O=C(O)CCCCCc1nc2ccccc2n1-c1ccccc1`, the melting point was in the range of 132 to 133 °C. `Cc1cc(C)cc(N(CCN)Cc2ccc3nc(NCCCN4CCOCC4)n(Cc4nc(C)ccc4O)c3c2)c1` returned a melting point of 196 °C. In the case of `COc1ccccc1NC(=O)Nc1nc(NCc2cccs2)nc(N(CCC(=O)O)Cc2cccc(C)c2)n1` it was 89 to 95 °C; in that of `Cc1cn(N=Cc2cccnc2)c(=O)n1CC#N`, 195 to 198 °C. With `CCCCCCCCCCCCCCOc1ccc(C(=O)OC)cc1C(C)(C)C` the figure was 44 to 45 °C; with `Cn1c(=O)n(-c2ccnc(N)c2)c2ccccc21`, 204 to 205 °C; with `O=C1c2ccccc2C(=O)N1OC/C=C/Cc1ccccc1`, 70 to 71 °C. Regarding `CC(C)(C)OC(=O)Nc1cc(N2CCC(OCCO)CC2)c(I)cc1[N+](=O)[O-]`, the melting point lay within 64 to 65 °C. The compound `CCC(CC)n1nc(C)c2c(NN3CCc4cc(Br)cc(Br)c43)nc(C)nc21` came in with a melting point of 190 to 191 °C. As to `ClC(Cl)(Cl)c1cc(-c2ccccc2)c2ccc3c(-c4ccccc4)cc(C(Cl)(Cl)Cl)nc3c2n1`, the melting point fell in the range of 180 to 184 °C. Regarding `N#Cc1cc2c(cc1F)OCC21C(=O)N(Cc2ccccc2C(F)(F)F)c2ccccc21` (stereo not drawn), the melting point is 193 to 195 °C. In the case of `CCCCCc1cc2c(nc(O)n2CCCNC(=O)NC2CCCCC2)c(N)n1` it was 202 to 204 °C; in that of `CCOC(=O)c1ccc(N2CCN(C(=O)N(CC)CC)CC2)cc1`, 77 to 82 °C. In the case of `CN(C)c1c(O)ccc2c1CCC1C2CCC2(C)C(=O)CCC12` (stereo not drawn) it was 155 to 156 °C; in that of `CC(C)(C)C(=O)Nc1cc2c(O)n(I)cnc-2n1`, more than 240 °C. In the case of `O=C(c1ccccc1)c1cc(Cl)ccc1-n1c(Br)nnc1CN1C(=O)c2ccccc2C1=O` it was 202 to 204 °C; in that of `Cc1c(C)c2c(c(C)c1NC(=O)c1ccccc1)CC(C)(C)O2`, 263 to 265 °C; in that of `Cc1ccccc1-c1ccc(C(=O)N2Cc3ccc(C(=O)NCc4cccc(C(F)(F)F)c4)n3Cc3ccccc32)cc1C`, 171 to 173 °C. `Cc1ccc(NC(=O)c2ccc(/C=C/C(=O)NOC3CCCCO3)cc2)cc1Nc1nc(-c2cccnc2)cs1` (stereo not drawn) came in with a melting point of 168 °C.

In the case of `O=C(O)C1=Cc2cc(OCc3ccccc3)ccc2OC1`, the melting point fell in the range of 184 to 189 °C. `Cc1ccc(Nn2c(-c3ccccc3)c(C)[nH]c2=S)cc1C` showed a melting point of 228 °C. With `CC(C)(C)C(C)(C)Nc1nc(Cl)nc(NC(C)(C)C(C)(C)C)n1` the figure was 129 to 131 °C; with `O=c1[nH]c(N2CCN(Cc3ccccc3)C(CO)C2)cc2ccccc12` (stereo not drawn), 176 to 177 °C. In the case of `CCCC(=O)Nc1n[nH]c2cc(-c3ccc(OC(F)(F)F)cc3)ccc12` it was 234 °C.

Consider `O=C1NCCCCC1NC(c1ccccc1)(c1ccccc1)c1ccccc1` (stereo not drawn), for which the melting point is 189 °C.

`CC(=O)OCC1OC(n2cnc(C#N)n2)C(OC(C)=O)C1OC(C)=O` (stereo not drawn) showed a melting point of 96 to 97 °C. With `O=C(c1ccc(N2CCOCC2)cc1O)C(F)(F)F` the figure was 81 to 82 °C. In the case of `Cc1ccnc2c1C(=O)CC(c1ccccc1Br)C2` (stereo not drawn) it was 106 to 107 °C; in that of `CCOC(=O)C(C#N)=Cc1cc(OC)c(N)c(OC)c1`, 77 to 78 °C.

Compound `CCC(=O)NCC1CC12c1cc(OC)ccc1-c1ccc(OC)cc12` (stereo not drawn) returned a melting point of 145 to 147 °C.

`Oc1nc(Cl)n(CCOc2ccccc2)n1` gave a melting point of 166 °C. With `CC(=O)OCCc1c(-c2ccccc2)nc(N)n2ncnc12` the figure was 181 to 182 °C; with `O=C(c1cccs1)c1cnn2c(-c3cccc(NC/C=C/c4ccc([N+](=O)[O-])cc4)c3)ccnc12`, 163 to 166 °C; with `CCOc1ccc2[nH]c(=O)n(C(C)(C)CC(C)(C)C)c2c1`, 108 °C. With `CCOC(=O)c1[nH]c2cc(Cl)cc(Cl)c2c1NCCC(=O)c1ccccc1` the figure was 195 to 197 °C; with `CCSc1cc(SCC)c2ccc3c(SCC)cc(SCC)c4ccc1c2c43`, 180 °C. With `CSC(=S)N/N=C/c1ccc(-c2ncn(-c3ccc(OC(F)(F)F)cc3)n2)cc1` the figure was 204 to 206 °C; with `Cc1cccc(C)c1CNc1cc(C(=O)N(C)C)cc2c1nc(C)n2COCc1ccccc1`, 55 to 56 °C. In turn, `CC1(C(=O)O)CCC(=O)c2cc(C3CCCCC3)c(Cl)cc21` (stereo not drawn) yielded a melting point of 227 to 228 °C. With `CC(Cc1ccc(OCc2ccncc2)cc1)NCC(O)c1cccc(C(F)(F)F)c1` (stereo not drawn) the figure was 83 to 90 °C. With `COc1ccc(-n2nc(OC(C)C)cc2-c2ccc(OCCNS(C)(=O)=O)cc2)cc1` the figure was 168 °C. Turning to `c1cc(N2CCNCC2)cnn1`, the melting point was more than 300 °C. With `CCOC(=O)c1cn(CCO)c2cc(-n3cccc3)c(F)cc2c1=O` the figure was 237 to 239 °C; with `O=C(c1ccc(-n2ccc(CO)n2)cc1Cl)N1Cc2cccn2Cc2ccccc21`, 85 °C; with `COP(=O)(CC(=C(c1ccc(F)cc1)c1ccc(F)cc1)c1nnnn1C)OC`, 140 to 141 °C. With `COC(=O)c1ccc(OCC(C)NCC(O)c2cccc(Cl)c2)cc1` (stereo not drawn) the figure was 99 to 101 °C; with `COc1ccc(Nc2ccccc2)c(NS(C)(=O)=O)c1`, 109 to 111 °C; with `O=C(O)Cc1ccc(CNC(=O)C2Cc3ccccc3N2S(=O)(=O)c2ccc(-c3cccc(C(F)(F)F)c3)cc2)c(Cl)c1` (stereo not drawn), 95 to 106 °C. For the compound `CC(=O)Nc1c(OC(C)=O)cc2c(c1[N+](=O)[O-])CCC2`, the melting point is 168 to 170 °C.
